Literature values in patent publication US20070043208A1, “Crystal structure of erythrocyte binding domain of EBA-175” (priority 2003, published 2007).

Tested on: P. falciparum
Details: DNA plasmid prime and recombinant protein boost regimen

In the case of “RII: 73 kDa erythrocyte-binding domain (616 amino acid fragment) of P. falciparum EBA-175”, the “monkeys protected from P. falciparum challenge” value is given as 3 of 4.
